# Experimental data published in US20250059179A1, “Heterocyclic Compounds and Methods of Use” (AMGEN INC., priority 2021, published 2025).
# Molecular target: GDP-bound KRAS protein (aa 1-169), containing both G12D and C118A amino acid substitutions (Homo sapiens, UniProt P01116, C118A/G12D)
# Experiment: KRAS G12D Coupled Nucleotide Exchange Assay;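 note: IC50 obtained by fitting the AlphaScreen signal with a four-parameter logistic curve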
# Format: biochemical
# Settings: 2 h compound pre-incubation; SOS-mediated nucleotide exchange, cRAF AlphaScreen readout
# Chain of GDP-bound KRAS protein (aa 1-169), containing both G12D and C118A amino acid substitutions (P01116 1-169 isoform P01116-2 G12D/C118A): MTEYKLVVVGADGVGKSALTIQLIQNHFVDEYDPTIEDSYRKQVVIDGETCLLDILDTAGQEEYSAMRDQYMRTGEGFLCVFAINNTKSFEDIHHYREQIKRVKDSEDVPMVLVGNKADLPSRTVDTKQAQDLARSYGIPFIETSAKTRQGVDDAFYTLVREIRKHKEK
row,Avg 2 h Coupled Exchange IC50 [nM],SMILES
1,3110,"Nc1nc2c(-c3c(Cl)cc4c(N5CCNCC5)nc(N5CC(n6ccnc6)C5)nc4c3F)cccc2s1 [Example 116, 4-[6-chloro-8-fluoro-2-(3-imidazol-1-ylazetidin-1-yl)-4-piperazin-1-yl-quinazolin-7-yl]-1,3-benzothiazol-2-amine]"
2,1400,"CN1CCCC2C1CCN2c1nc(N2CCNCC2)c2cc(Cl)c(-c3cccc4sc(N)nc34)c(F)c2n1 (centres unmarked) [Example 99, 4-(6-chloro-8-fluoro-2-(4-methyloctahydro-1H-pyrrolo[3,2-b]pyridin-1-yl)-4-(piperazin-1-yl)quinazolin-7-yl)benzo[d]thiazol-2-amine]"
3,359,"CC1(N)CN(c2nc(N3CCNCC3)c3cc(Cl)c(-c4cccc5sc(N)nc45)c(F)c3n2)C1 [Example 79, 4-[2-(3-amino-3-methyl-azetidin-1-yl)-6-chloro-8-fluoro-4-piperazin-1-yl-quinazolin-7-yl]-1,3-benzothiazol-2-amine]"
4,1550,"Nc1nc2c(-c3c(Cl)cc4c(N5CCNCC5)nc(N5CC6(CCN6)C5)nc4c3F)cccc2s1 [Example 102, 4-[6-chloro-2-(1,6-diazaspiro[3.3]heptan-6-yl)-8-fluoro-4-piperazin-1-yl-quinazolin-7-yl]-1,3-benzothiazol-2-amine]"
5,895,CN(C1CN(c2nc(N3CCNCC3)c3cc(Cl)c(-c4cccc5sc(N)nc45)c(F)c3n2)C1)[C@@H]1CCOC1 [Example 89]
6,1850,"Nc1nc2c(-c3c(Cl)cc4c(N5CCNCC5)nc(N5CC6(CCOCC(=O)N6)C5)nc4c3F)cccc2s1 [Example 105, 2-[7-(2-amino-1,3-benzothiazol-4-yl)-6-chloro-8-fluoro-4-piperazin-1-yl-quinazolin-2-yl]-8-oxa-2,5-diazaspiro[3.6]decan-6-one]"
7,633,"Nc1nc2c(-c3c(Cl)cc4c(N5CCNCC5)nc(N5CC(N6CC(O)C6)C5)nc4c3F)cccc2s1 [Example 85, 1-[1-[7-(2-amino-1,3-benzothiazol-4-yl)-6-chloro-8-fluoro-4-piperazin-1-yl-quinazolin-2-yl]azetidin-3-yl]azetidin-3-ol]"
8,2300,"Nc1nc2c(-c3c(Cl)cc4c(N5CCNCC5)nc(N5CC(N6CCS(=O)(=O)CC6)C5)nc4c3F)cccc2s1 [Example 111, 4-[6-chloro-2-[3-(1,1-dioxo-1,4-thiazinan-4-yl)azetidin-1-yl]-8-fluoro-4-piperazin-1-yl-quinazolin-7-yl]-1,3-benzothiazol-2-amine]"
9,471,"CN1CCC[C@H]1COc1nc(N2C3CCC2C(=O)NC3)c2cc(Cl)c(-c3cccc4sc(N)nc34)c(F)c2n1 (stereo partly drawn) [Example 82, 8-(7-(2-aminobenzo[d]thiazol-4-yl)-6-chloro-8-fluoro-2-(((S)-1-methylpyrrolidin-2-yl)methoxy)quinazolin-4-yl)-3,8-diazabicyclo[3.2.1]octan-2-one]"
10,496,"Nc1nc2c(-c3c(Cl)cc4c(N5CCNCC5)nc(N5CC(N6CCC(O)CC6)C5)nc4c3F)cccc2s1 [Example 83, 1-[1-[7-(2-amino-1,3-benzothiazol-4-yl)-6-chloro-8-fluoro-4-piperazin-1-yl-quinazolin-2-yl]azetidin-3-yl]piperidin-4-ol]"
11,3950,"Nc1nc2c(-c3c(Cl)cc4c(N5CCNCC5)nc(N5CCCC(c6nccs6)C5)nc4c3F)cccc2s1 (centres unmarked) [Example 121, 4-[6-chloro-8-fluoro-4-piperazin-1-yl-2-[3-thiazol-2-yl-1-piperidyl]quinazolin-7-yl]-1,3-benzothiazol-2-amine]"

# Continued, compound first:
row,SMILES,Avg 2 h Coupled Exchange IC50 [nM]
1,"CN(C)C1CCN(c2nc(N3CCNCC3)c3cc(Cl)c(-c4cccc5sc(N)nc45)c(F)c3n2)C1 (centres unmarked) [Example 94, 4-[6-chloro-8-fluoro-4-piperazin-1-yl-2-[3-(dimethylamino)pyrrolidin-1-yl]quinazolin-7-yl]-1,3-benzothiazol-2-amine]",1140
2,"Nc1nc2c(-c3c(Cl)cc4c(N5CCNCC5)nc(NCC(O)c5cncs5)nc4c3F)cccc2s1 (centres unmarked) [Example 106, 2-[[7-(2-amino-1,3-benzothiazol-4-yl)-6-chloro-8-fluoro-4-piperazin-1-yl-quinazolin-2-yl]amino]-1-thiazol-5-yl-ethanol]",1900
3,"Nc1nc2c(-c3c(Cl)cc4c(N5CCNCC5)nc(N5CC6(C5)NCC6(F)F)nc4c3F)cccc2s1 [Example 118, 4-[6-chloro-2-(3,3-difluoro-1,6-diazaspiro[3.3]heptan-6-yl)-8-fluoro-4-piperazin-1-yl-quinazolin-7-yl]-1,3-benzothiazol-2-amine]",3370
4,"Nc1nc2c(-c3c(Cl)cc4c(N5CCNCC5)nc(N5CC(N6CC(F)C6)C5)nc4c3F)cccc2s1 [Example 90, 4-[6-chloro-8-fluoro-2-[3-(3-fluoroazetidin-1-yl)azetidin-1-yl]-4-piperazin-1-yl-quinazolin-7-yl]-1,3-benzothiazol-2-amine]",1010
5,"CN1CCO[C@@H]2CN(c3nc(N4CCNCC4)c4cc(Cl)c(-c5cccc6sc(N)nc56)c(F)c4n3)C[C@@H]21 (relative stereo) [Example 103, 4-(6-chloro-8-fluoro-2-(cis-4-methylhexahydropyrrolo[3,4-b][1,4]oxazin-6(2H)-yl)-4-(piperazin-1-yl)quinazolin-7-yl)benzo[d]thiazol-2-amine]",1710
6,"CCOC(=O)c1ccn(C2CN(c3nc(N4CCNCC4)c4cc(Cl)c(-c5cccc6sc(N)nc56)c(F)c4n3)C2)n1 [Example 119, ethyl 1-[1-[7-(2-amino-1,3-benzothiazol-4-yl)-6-chloro-8-fluoro-4-piperazin-1-yl-quinazolin-2-yl]azetidin-3-yl]pyrazole-3-carboxylate]",3670
7,"CC1(C)CN(C2CN(c3nc(N4CCNCC4)c4cc(Cl)c(-c5cccc6sc(N)nc56)c(F)c4n3)C2)CCO1 [Example 117, 4-[6-chloro-2-[3-(2,2-dimethylmorpholin-4-yl)azetidin-1-yl]-8-fluoro-4-piperazin-1-yl-quinazolin-7-yl]-1,3-benzothiazol-2-amine]",3320
8,"Nc1nc2c(-c3c(Cl)cc4c(N5CCNCC5)nc(N5C[C@@H]6NCC[C@@H]65)nc4c3F)cccc2s1 [Example 115, 4-[6-chloro-2-[(1S,5S)-2,6-diazabicyclo[3.2.0]heptan-6-yl]-8-fluoro-4-piperazin-1-yl-quinazolin-7-yl]-1,3-benzothiazol-2-amine]",2860
9,"Nc1nc2c(-c3c(Cl)cc4c(N5CCNCC5)nc(N5CC6(CCNC6)C5)nc4c3F)cccc2s1 [Example 120, 4-[6-chloro-2-(2,7-diazaspiro[3.4]octan-2-yl)-8-fluoro-4-piperazin-1-yl-quinazolin-7-yl]-1,3-benzothiazol-2-amine]",3900
10,"CNC1(C)CN(c2nc(N3CCNCC3)c3cc(Cl)c(-c4cccc5sc(N)nc45)c(F)c3n2)C1 [Example 77, 4-[6-chloro-8-fluoro-2-[3-methyl-3-(methylamino)azetidin-1-yl]-4-piperazin-1-yl-quinazolin-7-yl]-1,3-benzothiazol-2-amine]",201
11,"C[C@@H]1[C@@H](N)CN1c1nc(N2CCNCC2)c2cc(Cl)c(-c3cccc4sc(N)nc34)c(F)c2n1 [Example 80, 4-[2-[(2R,3S)-3-amino-2-methyl-azetidin-1-yl]-6-chloro-8-fluoro-4-piperazin-1-yl-quinazolin-7-yl]-1,3-benzothiazol-2-amine]",377
12,"CNC1CN(c2nc(N3CCNCC3)c3cc(Cl)c(-c4cccc5sc(N)nc45)c(F)c3n2)C1 [Example 91, 4-[6-chloro-8-fluoro-2-[3-(methylamino)azetidin-1-yl]-4-piperazin-1-yl-quinazolin-7-yl]-1,3-benzothiazol-2-amine]",1013
13,"Nc1nc2c(-c3c(Cl)cc4c(N5CCNCC5)nc(N5C[C@@H]6NCC[C@H]65)nc4c3F)cccc2s1 [Example 93, 4-[6-chloro-2-[(1S,5R)-2,6-diazabicyclo[3.2.0]heptan-6-yl]-8-fluoro-4-piperazin-1-yl-quinazolin-7-yl]-1,3-benzothiazol-2-amine]",1140
14,"Nc1nc2c(-c3c(Cl)cc4c(N5CCNCC5)nc(N5CC(N6C[C@H]7COC[C@@H](C6)N7)C5)nc4c3F)cccc2s1 [Example 87, 4-(2-(3-((1R,5S)-3-oxa-7,9-diazabicyclo[3.3.1]nonan-7-yl)azetidin-1-yl)-6-chloro-8-fluoro-4-(piperazin-1-yl)quinazolin-7-yl)benzo[d]thiazol-2-amine]",701
15,"CCC1(N)CN(c2nc(N3CCNCC3)c3cc(Cl)c(-c4cccc5sc(N)nc45)c(F)c3n2)C1 [Example 81, 4-[2-(3-amino-3-ethyl-azetidin-1-yl)-6-chloro-8-fluoro-4-piperazin-1-yl-quinazolin-7-yl]-1,3-benzothiazol-2-amine]",437
16,"CN1CCO[C@H]2CN(c3nc(N4CCNCC4)c4cc(Cl)c(-c5cccc6sc(N)nc56)c(F)c4n3)C[C@@H]21 (relative stereo) [Example 101, 4-(6-chloro-8-fluoro-2-(trans-4-methylhexahydropyrrolo[3,4-b][1,4]oxazin-6(2H)-yl)-4-(piperazin-1-yl)quinazolin-7-yl)benzo[d]thiazol-2-amine]",1530
17,"CN(C1COC1)C1CN(c2nc(N3CCNCC3)c3cc(Cl)c(-c4cccc5sc(N)nc45)c(F)c3n2)C1 [Example 100, 4-[6-chloro-8-fluoro-2-[3-[methyl(oxetan-3-yl)amino]azetidin-1-yl]-4-piperazin-1-yl-quinazolin-7-yl]-1,3-benzothiazol-2-amine]",1500
18,"Nc1nc2c(-c3c(Cl)cc4c(N5CCNCC5)nc(N[C@H]5CCc6ncsc6C5)nc4c3F)cccc2s1 [Example 110, 4-[6-chloro-8-fluoro-4-piperazin-1-yl-2-[[(6S)-4,5,6,7-tetrahydro-1,3-benzothiazol-6-yl]amino]quinazolin-7-yl]-1,3-benzothiazol-2-amine]",2180
